In patent publication US5554615A, “Condensed pyrimidine derivative” (Eisai Co., Ltd., priority 1991, dated 1996):
pIC50: −log10 of the molar value. Like-named read-outs stand apart in the source and are kept apart here.

What was measured:
[1] = target: T1, dihydrofolate reductase (DHFR) (Mus musculus, UniProt P00375); test: Inhibitory activity against dihydrofolate reductase (DHFR); format: biochemical
T1 construct: DHFR was prepared from mouse leukemic cell P388; endogenous in cells; host or cells: P388 mouse leukemia cells (enzyme purified from the cells)
T1 sequence (P00375 1-187): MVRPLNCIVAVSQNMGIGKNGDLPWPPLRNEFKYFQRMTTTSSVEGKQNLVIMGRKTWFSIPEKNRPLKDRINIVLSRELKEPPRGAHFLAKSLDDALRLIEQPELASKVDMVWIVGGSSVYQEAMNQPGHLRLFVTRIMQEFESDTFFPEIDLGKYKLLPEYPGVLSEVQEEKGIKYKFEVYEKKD
Protocol: DHFR was prepared from mouse leukemic cell P388 according to the method of J. M. Whiteley et al. [see Arch.
A solution of purified DHFR was added to a solution comprising a potassium phosphate buffer solution (pH: 7.5, 75 mM), mercaptoethanol (7.5 mM) and NADPH (0.25 mM) to make up to a total amount of 0.57 mi. Each of the serial dilutions of the compound according to the present invention in an amount of 0.015 ml was added to the mixture prepared above. […] The obtained mixtures were kept at 37° C. for 5 minutes to conduct a reaction.

[2] = test system: Mouse leukemic cell P388; test: Inhibitory activity against proliferation of oncocyte, P388 (MTT method); format: cell-based; details: 72 h
Protocol: (§1) Mouse leukemic cell P388, mouse colonic cancer cell Colon 38, human rhinopharyngeal cancer cell KB and human lung cancer cell A549 were used as the oncocytes. […] The microplate was placed in a carbon dioxide incubator containing 5% of CO2 and incubated at 37° C. for one day. The DMSO solution of the compound according to the present invention was diluted with the culture medium to prepare the serial dilutions of the compound. These dilutions were added to the above wells in a predetermined amount. The resulting plate was cultured at 37° C. for 3 days. […] The number of viable cells was determined according to the method of M. C.

[3] = test system: human lung cancer cell A549; test: Inhibitory activity against proliferation of oncocyte, A549 (MTT method); format: cell-based; details: 72 h
Protocol: as §1

[4] = test system: human rhinopharyngeal cancer cell KB; test: Inhibitory activity against proliferation of oncocyte, KB (MTT method); format: cell-based; details: 72 h
Protocol: as §1

[5] = test system: mouse colonic cancer cell Colon 38; test: Inhibitory activity against proliferation of oncocyte, Colon 38 (MTT method); format: cell-based; details: 72 h
Protocol: as §1

[6] = test system: Mouse P388 leukemia; test: Activity against experimental tumor transplanted to mouse (P388 leukemia); format: in vivo; details: for MST / T/C: i.p., once a day for four days; for ratio of the maximum effective dose to the minimum one: tumor bearing mouse (CDF1)
Protocol: P388 cells (1×10^6) were inoculated into the abdominal cavity of a female CDF1 mouse of 7 weeks of age and a test drug was administered to the mouse once a day for four days from the next day.
Each test drug was administered intraperitoneally in a state dissolved or suspended in a 4% solution of NaHCO3 in physiological saline, while only a 4% solution of NaHCO3 in physiological saline was administered to a control group. Each control group was composed of ten mice, while each medicated group was composed of six mice. The antitumor activity was evaluated based on the T/C value calculated according to the following formula: [formula]
The measurement was conducted according to the method of R. I. Geran et al. (see Cancer Chemotherapy Reports (Part 3), 31 (1972)).

[7] = test system: LX-1; test: Inhibitory activity against proliferation of oncocyte, LX-1; format: cell-based; details: Homo sapiens, 72 h, Table 2-B, 3 days
[8] = in words; cited from earlier work
[9] = test system: dihydrofolate reductase (DHFR); details: in words; cited from earlier work
[10] = read-out: 50% cell proliferation-inhibitory concentration (IC50), Table 2-A, 3 days
[11] = read-out: 50% cell proliferation-inhibitory concentration (IC50), Table 2-A, KB, 3 days
[12] = Table 2-B, 3 days, read-out: Proliferation-inhibitory activity IC50
[13] = Table 2-B, KB, 3 days, read-out: Proliferation-inhibitory activity IC50

Structure (SMILES) | pIC50 [1] | pIC50 [2, 10] | pIC50 [3, 10] | pIC50 [4, 11] | pIC50 [5, 10] | MST ([6]; Table 3-A, 50.0 mg/kg) | T/C ([6]; Table 3-A, 50.0 mg/kg) [%] | pIC50 [2, 12] | pIC50 [3, 12] | pIC50 [4, 13] | pIC50 [5, 12] | T/C ([6]; Table 3-B, 0.78 mg/kg) [%] | T/C ([6]; Table 3-B, 3.13 mg/kg) [%] | also measured
Nc1nc(N)c2c(ccn2CCCc2ccc(C(=O)N[C@@H](CCC(=O)O)C(=O)O)cc2)n1 [Ex. 2, N-[4-[3-(2,4-Diaminopyrrolo[3,2-d]pyrimidin-5-yl)propyl]benzoyl]-L-glutamat] | 7.01 | 7.92 | 7.72 | 8.01 | 7.40 | 14.8 ± 0.83 | 164 |  |  |  |  |  |  | MST ([6]; Table 3-A, 3.13 mg/kg): 13.3 ± 0.47; T/C ([6]; Table 3-A, 3.13 mg/kg): 148%; MST ([6]; Table 3-A, 6.25 mg/kg): 13.5 ± 0.50; T/C ([6]; Table 3-A, 6.25 mg/kg): 150%; MST ([6]; Table 3-A, 25.0 mg/kg): 14.0 ± 0.71; T/C ([6]; Table 3-A, 25.0 mg/kg): 156%; MST ([6]; Table 3-A, 100.0 mg/kg): 14.8 ± 0.83; T/C ([6]; Table 3-A, 100.0 mg/kg): 164%; MST ([6]; Table 3-A, 200.0 mg/kg): 16.0 ± 0.82; T/C ([6]; Table 3-A, 200.0 mg/kg): 178%; ratio of the maximum effective dose to the minimum one [6]: about 60
CC(CCn1ccc2nc(N)nc(N)c21)c1ccc(C(=O)N[C@@H](CCC(=O)O)C(=O)O)cc1 (stereo partly drawn) [Ex. 4, N-[4-[3-(2,4-Diaminopyrrolo[3,2-d]pyrimidin-5-yl)-1-methylpropyl]benzoyl]-L-glutamate] | 7.05 | 7.80 | 7.20 | 7.51 | 6.89 | 18.5 ± 1.12 | 185 |  |  |  |  |  |  | 
CCC(CCn1ccc2nc(N)nc(N)c21)c1ccc(C(=O)N[C@@H](CCC(=O)O)C(=O)O)cc1 (stereo partly drawn) [Ex. 6, N-[4-[3-(2,4-Diaminopyrrolo[3,2-d]pyrimidin-5-yl)-1-ethylpropyl]benzoyl]-L-glutamate] | 6.00 | 7.92 | 6.03 | 7.52 | 6.47 |  |  |  |  |  |  |  |  | 
CCC(Cn1ccc2nc(N)nc(N)c21)c1ccc(C(=O)N[C@@H](CCC(=O)O)C(=O)O)cc1 (stereo partly drawn) [Ex. 9, N-[4-[2-(2,4-Diaminopyrrolo[3,2-d]pyrimidin-5-yl)-1-ethylethyl]benzoyl]-L-glutamate] | 7.52 | 7.77 | 7.00 | 7.49 | 7.41 | 15.0 ± 0.71 | 167 |  |  |  |  |  |  | MST ([6]; Table 3-A, 0.78 mg/kg): 16.3 ± 1.02; T/C ([6]; Table 3-A, 0.78 mg/kg): 181%; MST ([6]; Table 3-A, 3.13 mg/kg): 14.8 ± 0.83; T/C ([6]; Table 3-A, 3.13 mg/kg): 164%; ratio of the maximum effective dose to the minimum one [6]: about 60
Nc1nc(N)c2c(n1)CCC2CCc1ccc(C(=O)N[C@@H](CCC(=O)O)C(=O)O)cc1 (stereo partly drawn) [Ex. 103, N-{4-[2-(2,4-diamino-6,7-dihydro-5H-cyclopenta[d]pyrimidin-5-yl)ethyl]benzoyl}-L-glutamic] | 7.14 |  |  |  |  |  |  | 8.11 | 8.01 | 8.42 | 8.05 | 129 | 135 | T/C ([6]; Table 3-B, 50 mg/kg): 148%
Nc1nc(N)c2c(n1)CCC2CCCc1ccc(C(=O)N[C@@H](CCC(=O)O)C(=O)O)s1 (stereo partly drawn) [Ex. 105, N-{5-[3-(2,4-diamino-6,7-dihydro-5H-cyclopenta[d]pyrimidin-5-yl)propyl]-2-thenoyl}-L-glutamic acid] | 8.40 |  |  |  |  |  |  | 8.74 | 8.62 | 9.04 | 9.06 | 176 | 151 | pIC50 [7]: 9.17; T/C ([6]; Table 3-B, 0.05 mg/kg): 126%; T/C ([6]; Table 3-B, 0.20 mg/kg): 151%
Nc1nc(N)c2c(n1)CCC2CCCc1ccc(C(=O)N[C@@H](CCC(=O)O)C(=O)O)cc1 (some centres unmarked) [Ex. 108] |  |  |  |  |  |  |  | 8.57 | 8.03 | 8.80 | 8.39 | 150 | 170 | T/C ([6]; Table 3-B, 0.20 mg/kg): 133%
CN(Cc1cnc2nc(N)nc(N)c2n1)c1ccc(C(=O)N[C@@H](CCC(=O)O)C(=O)O)cc1 [MTX, Methotrexate, reference compound] |  | 7.80 | 7.10 |  | 7.22 |  |  | 7.66 | 7.06 | 7.96 | 7.55 |  |  | pIC50 ([4]; read-out: 50% cell proliferation-inhibitory concentration (IC50)): 7.70; potent adverse effects [8]: bone marrow suppression and degradation of the intestinal epithelium; inhibitory activity against dihydrofolate reductase (DHFR) [9]: high inhibitory activity
